US9556121B2, “Pyridyloxyalkyl carboxamides and use thereof as endoparasiticides and nematicides” (BAYER CROPSCIENCE AG, priority 2012, dated 2017)

How the values were obtained:
Assay type in all cases: in vivo
Cooperia curticei = Cooperia curticei test (COOPCU), larval kill; conditions: for effect (kill in %): after 5 days, about 40 nematode larvae; for inhibition at 20 ppm: Cooperia curticei, 120 h, COOPCU, 5 dat
Protocol: Cooperia curticei Test (COOPCU)
(§1) Solvent: dimethyl sulphoxide
(§2) To produce a suitable preparation of active compound, 10 mg of active compound are mixed with 0.5 ml of dimethyl sulphoxide, and the concentrate is diluted with Ringer solution to the desired concentration.
Vessels containing the active compound preparation of the desired concentration are populated with about 40 nematode larvae (Cooperia curticei).
(§3) After 5 days, the kill in % is determined. 100% means that all of the larvae have been killed; 0% means that none of the larvae have been killed.

Haemonchus contortus = Haemonchus contortus test (HAEMCO), larval kill; conditions: for effect (kill in %): application rate 20 ppm, after 5 days, about 40 larvae; for inhibition at 20 ppm: Haemonchus contortus, 120 h, HAEMCO, 5 dat
Protocol: Haemonchus contortus Test (HAEMCO)
as §1, §2
Vessels containing the active compound preparation of the desired concentration are populated with about 40 larvae of the red stomach worm (Haemonchus contortus).
as §3

Meloidogyne incognita = Meloidogyne incognita test (MELGIN), gall formation on lettuce; conditions: application rate 20 ppm, after 14 days, sand, egg/larvae suspension
Protocol: Meloidogyne incognita Test (MELGIN)
Solvent: 125.0 parts by weight of acetone
To prepare a suitable active compound preparation, 1 part by weight of active compound is mixed with the stated amount of solvent and the concentrate is diluted with water to the desired concentration.
Vessels are filled with sand, active compound solution, an egg/larvae suspension of the root-knot nematode (Meloidogyne incognita) and lettuce seeds. The lettuce seeds germinate and the plants develop. On the roots, galls are formed.
After 14 days, the nematicidal effect in % is determined by the formation of galls. 100% means that no galls have been found; 0% means that the number of galls on the treated plants corresponds to the untreated control.

Structure (SMILES)	effect (kill in %) (Haemonchus contortus) [%]	effect (kill in %) (Cooperia curticei; application rate 20 ppm) [%]	other results
O=C(NCCOc1ccc(Cl)cn1)c1ccccc1C(F)(F)F [1-36]	80		effect (kill in %) (Cooperia curticei; application rate 100 ppm): 90%
O=C(NC1(COc2ccc(C(F)(F)F)cn2)CC1)c1ccccc1C(F)(F)F [1-173]	100	100	
CC(C)(COc1ncc(Cl)cc1Cl)NC(=O)c1ccccc1C(F)(F)F [1-82]	90	90	
O=C(NCCOc1ncc(C(F)(F)F)cc1Cl)c1ccccc1[N+](=O)[O-] [1-53]	100		
O=C(NCCOc1ncc(C(F)(F)F)cc1Cl)c1ccccc1C(F)F [1-2]	100		
CC(CNC(=O)c1ccccc1C(F)(F)F)Oc1ncc(C(F)(F)F)cc1Cl (stereo not shown) [1-25]	100	90	
O=C(NCCOc1ccc(C(F)(F)F)cn1)c1sccc1I [1-48]		80	
O=C(NCCOc1ncc(C(F)(F)F)cc1Cl)c1ccccc1I [1-28]	100	100	
O=C(NCCOc1ncc(F)cc1F)c1ccccc1I [1-141]			nematicidal effect in % (formation of galls) (Meloidogyne incognita): 90%
N#Cc1cnc(OCCNC(=O)c2ccccc2C(F)(F)F)c(F)c1 [1-164]	90	90	nematicidal effect in % (formation of galls) (Meloidogyne incognita): 100%
O=C(NCCOc1ncc(C(F)(F)F)cc1Cl)c1c(F)cccc1F [1-52]	90		
O=C(NCCOc1ccc(C(F)(F)F)cn1)c1ccccc1I [1-44]	100		
O=C(NCCOc1ccc(Cl)cn1)c1c(F)cccc1F [1-35]	80		effect (kill in %) (Cooperia curticei; application rate 100 ppm): 80%
O=C(NCCOc1ccc(C(F)(F)F)cn1)c1cccnc1C(F)(F)F [1-57]	80		
CC(COc1ncc(C(F)(F)F)cc1Cl)NC(=O)c1cn(C)nc1C(F)F (stereo not shown) [1.239, reference compound]			inhibition at 20 ppm (Cooperia curticei): 0%; inhibition at 20 ppm (Haemonchus contortus): 0%
O=C(NC1(COc2ncc(C(F)(F)F)cc2Cl)CC1)c1c(F)cccc1F [1-167]	80		
O=C(NCCOc1ccc(C(F)(F)F)cn1)c1ccccc1Cl [1-42]	80		
COc1ncccc1C(=O)NCCOc1ncc(C(F)(F)F)cc1Cl [1-155]	100	80	
O=C(NCCOc1ccc(Cl)cn1)c1ccccc1Br [1-33]	80		
O=C(NCCOc1ncc(F)cc1F)c1ccccc1C(F)(F)F [1-134]			nematicidal effect in % (formation of galls) (Meloidogyne incognita): 90%
Cc1ccccc1C(=O)NCCOc1ncc(C(F)(F)F)cc1Cl [1-29]	80	80	
O=C(NCCOc1ncc(Cl)cc1Cl)c1ccccc1F [1-15]	80		
O=C(NCCOc1ncc(C(F)(F)F)cc1Cl)c1ccccc1Br [1-27]	100	90	
O=C(NCCOc1ccc(Cl)cn1)c1ccccc1I [1-34]	90		
O=C(NCCOc1ncc(F)cc1F)c1c(F)cccc1F [1-133]			nematicidal effect in % (formation of galls) (Meloidogyne incognita): 90%

Structure (SMILES)	effect (kill in %) (Haemonchus contortus) [%]	effect (kill in %) (Cooperia curticei; application rate 20 ppm) [%]	other results
O=C(NC1(COc2ccc(C(F)(F)F)cn2)CC1)c1ccccc1Br [1-176]	90	90	
O=C(NCCOc1ncc(Cl)cc1Cl)c1ccccc1C(F)(F)F [1-20]	100		
O=C(NCCOc1ccc(C(F)(F)F)cn1)c1ccccc1C(F)(F)F [1-46]	100		
O=C(NCCOc1ncc(C(F)(F)F)cc1Cl)c1ccccc1Cl [1-26]	100	80	
O=C(NC1(COc2ncc(C(F)(F)F)cc2Cl)CC1)c1ccccc1[N+](=O)[O-] [1-195]	80		
O=C(NCCOc1ncc(Cl)cc1Cl)c1ccccc1I [1-18]	100		nematicidal effect in % (formation of galls) (Meloidogyne incognita): 80%
CC(COc1ccc(Cl)cc1Cl)NC(=O)c1ccccc1C(F)(F)F (stereo not shown) [4-2, reference compound]			inhibition at 20 ppm (Cooperia curticei): 0%
O=C(NC1(COc2ccc(C(F)(F)F)cn2)CC1)c1ccccc1[N+](=O)[O-] [1-196]	90		
O=C(NCCOc1ncc(Cl)cc1Cl)c1sccc1Cl [1-23]	80		
CC(COc1ncc(C(F)(F)F)cc1Cl)NC(=O)c1ccccc1C(F)(F)F (stereo not shown) [1-4]	90	100	inhibition at 20 ppm (Cooperia curticei): 100%; inhibition at 20 ppm (Haemonchus contortus): 90%
O=C(NCCOc1ncc(Cl)cc1Cl)c1ccccc1Cl [1-16]	100		
O=C(NCCOc1ccc(C(F)(F)F)cn1)c1ccccc1Br [1-43]	90		
O=C(NCCOc1ccc(C(F)(F)F)cn1)c1c(F)cccc1F [1-45]	90		effect (kill in %) (Cooperia curticei; application rate 100 ppm): 80%
O=C(NC1(COc2ncc(C(F)(F)F)cc2Cl)CC1)c1ccccc1I [1-170]	100	100	nematicidal effect in % (formation of galls) (Meloidogyne incognita): 100%
O=C(NCCOc1ncc(Cl)cc1Cl)c1sccc1I [1-22]	100		
N#Cc1cnc(OCCNC(=O)c2c(F)cccc2F)c(F)c1 [1-189]			nematicidal effect in % (formation of galls) (Meloidogyne incognita): 90%
O=C(NCCOc1ncc(C(F)(F)F)cc1Cl)c1ccccc1C(F)(F)F [1-1]	100	100	
O=C(NCCOc1ccc(C(F)(F)F)cn1)c1sccc1Cl [1-49]			nematicidal effect in % (formation of galls) (Meloidogyne incognita): 90%
O=C(NCCOc1ncc(C(F)(F)F)cc1Cl)c1cccnc1C(F)(F)F [1-63]	90	80	nematicidal effect in % (formation of galls) (Meloidogyne incognita): 90%
CC(C)(COc1ccc(C(F)(F)F)cn1)NC(=O)c1ccccc1C(F)(F)F [1-78]	80	80	
O=C(NC1(COc2ccc(C(F)(F)F)cn2)CC1)c1cccnc1Cl [1-177]			nematicidal effect in % (formation of galls) (Meloidogyne incognita): 90%
O=C(NCCOc1ncc(Cl)cc1Cl)c1c(F)cccc1F [1-19]	90		
O=C(NC1(COc2ncc(C(F)(F)F)cc2Cl)CC1)c1ccccc1C(F)(F)F [1-169]	80	80	
O=C(NC1(COc2ccc(C(F)(F)F)cn2)CC1)c1c(F)cccc1F [1-168]	90	100	
